Measured values from patent US20100196376A1, “METHOD FOR REDUCING ALLERGEN-INDUCED AIRWAY HYPERRESPONSIVENESS” (National Jewish Health, priority 2001, published 2010).

Assays:
Type in all cases: in vivo, mouse (BALB/c)
[1] = test system: ovalbumin-sensitized and challenged mice (airway hyperresponsiveness to methacholine); assay: Airway function: change in lung resistance (RL) and dynamic compliance (Cdyn) after aerosolized methacholine, ovalbumin-sensitized and challenged mice
Description: (§1) Mice (8/group/experiment) were sensitized by intraperitoneal injection of 20 μg of ovalbumin (Grade V, Sigma) emulsified in 2.25 mg alum (Alum® Inject; Pierce, Rockford, Ill.) in a total volume of 100 μl on days 0 and 14. On days 28, 29 and 30, mice were challenged via the airways by a 20-minute inhalation exposure to aerosols of ovalbumin (1% in saline) obtained from a DeVilbiss ultrasonic nebulizer (particle size 1-5 μm). Age-matched, control animal groups (8/group/experiment) consisted of mice injected with alum alone (non-sensitized) and exposed either to aerosols of saline or to aerosolized ovalbumin, and mice sensitized to ovalbumin but subsequently exposed to aerosols of saline.
Briefly, mice were sensitized and challenged to ovalbumin as described in Example 1. Airway function was assessed in vivo in anesthetized, mechanically ventilated mice as previously described (see, for example, Takeda et al., 1997, J. Exp. Med. 186, 449-454) by measuring changes in lung resistance (RL) and dynamic compliance (Cdyn) in response to intratracheal challenge with aerosolized methacholine at doses of 1.56, 3.125, 6.25 and 12.5 mg/ml in saline. Baseline values were recorded from data obtained after intra-tracheal challenge with aerosolized saline. The data are presented in percent of change from baseline RL, and Cdyn.

[2] = test system: ovalbumin-sensitized and challenged mice (BAL eosinophils); assay: Bronchoalveolar lavage (BAL) differential cell counts, ovalbumin-sensitized and challenged mice; conditions: i.p. 2 h prior to each allergen challenge; CGRP 20 μg/kg, CGRP fragment 8-37 100 μg/kg (FIG. 3C)
Description: as §1
Following assessment of airway function, the lungs were lavaged once with 1 ml of sterile Hank's balanced salt solution (HBSS) pre-warmed at 37° C. The recovered BAL fluids were placed in Eppendorf tubes and were centrifuged at 4° C. for 5 min at 1,500 rpm. The obtained cell pellets were resuspended in 200 μl of sterile phosphate-buffered saline (PBS) and total cell numbers were determined from counting of crystal violet-stained aliquots using a hemacytometer. Differential cell counts were determined from cytospin preparations stained with Leukostat (Fisher Diagnostics, Pittsburgh, Pa.). At least 200 cells were counted from each slide in a blinded fashion.

[3] = test system: ovalbumin-sensitized and challenged mice (tissue infiltrating eosinophils); assay: Tissue infiltrating eosinophils, MBP immunoperoxidase and morphometric analysis of lung sections; conditions: i.p. 2 h prior to each allergen challenge; CGRP 20 μg/kg, CGRP fragment 8-37 100 μg/kg (FIG. 3D)
Description: For histology and immunohistochemistry, the lungs of the mice were inflated and fixed with 4% paraformaldehyde in PBS for 24 h at 4° C. followed by processing into paraffin. Five μm-thick sections were cut from the paraffin blocks, deparaffinized and stained with hematoxylin and eosin for routine histology.
The pan neuronal marker PGP9.5, CGRP and tissue eosinophils were detected by immunoperoxidase. Unless otherwise stated, all incubations were carried out at room temperature. All washes were performed with TBS (50 mM TRIS-buffered saline pH 7.6) 3 times for 5 min. Endogenous peroxidase was blocked by incubation of tissue sections with H2O2 (0.3% in methanol) for 30 minutes. […]
For tissue eosinophils, the sections were pretreated for 5 min with 0.01% trypsin in TBS to retrieve antigens. […] CGRP was detected with a polyclonal rabbit anti-CGRP antibody (Biogenesis) diluted 1:200. […]
The data of immunohistochemistry were quantitatively analyzed (morphometric analysis) on a G-3 Macintosh computer using the National Institutes of Health (NIH) Scion Image analysis software. […]
The number of tissue infiltrating eosinophils was determined by counting all MBP-positive cells present in the airway wall including the adventitia. When eosinophils were present in tissue areas connecting blood vessels to adjacent airways only 50% of these cells were counted for these airways. […]

In the case of “CGRP(8-37): highly selective CGRP receptor antagonist, human synthetic CGRP (fragment 8-37), from Sigma”, the “Inhibitory effect of CGRP on AHR after pretreatment with the receptor antagonist” value ([1]; CGRP i.p. after allergen challenge period, animals pretreated with CGRP(8-37) (FIGS. 4A, 4B)) is reported as “totally neutralized”, the “AHR in sensitized mice” value ([1]; administration after the period of allergen challenge, CGRP i.p. at 2 h prior to assessment of airway function (FIGS. 4A, 4B)) is reported as “did not alter” and the “Extent / development of AHR” value ([1]; i.p. 2 h prior to each allergen challenge, CGRP 20 μg/kg, CGRP fragment 8-37 100 μg/kg (FIGS. 3A, 3B)) is reported as “did not produce any significant change”. For the same substance, the “Numbers of BAL eosinophils” value [2] was “no significant effect” and the “Numbers of tissue infiltrating eosinophils” value [3] was “no significant effect”.
